According to US12213979B2, “Biomarkers of methotrexate-induced immune tolerance” (Genzyme Corporation, priority 2017, dated 2025):

Assays:
[1] = test system: erythroid ankyrin and glycophorin C; assay: Tissue mass spectrometry imaging (tMSI) of spleen; format: in vivo, mice; settings: 7 days after rhGAA initiation, methotrexate given together with rhGAA or FB
Protocol: Fresh spleen samples for tMSI were collected in 10% gelatin (Alfa Aesar catalog J62699), frozen en bloc, cut into […] sections, and deposited on indium tin oxide ([…]) glass slides. ITO glass slides were coated with matrix-assisted laser desorption/ionization (MALDI) matrix (α-cyano-4-hydroxycinnamic acid) for tMSI. Mass spectrometry imaging was performed with AB Sciex 4800 MALDI-TOF/TOF, Autoflex MALDI-TOF/TOF and 7T SolariX MALDI-FTICR mass spectrometers. The imaging data sets were analyzed with TissueView, flexlmaging, or Multimaging 1.1 (ImaBiotech).

[2] = test system: genes associated with erythropoiesis; assay: RNA-sequencing of spleen and PBMC's of treated mice; format: in vivo; settings: for transcriptional signatures of erythropoiesis: day 7 after rhGAA initiation, rhGAA in conjunction with low-dose methotrexate
Protocol: Animals were sacrificed on day 7 after rhGAA initiation. Blood was collected by terminal retro-orbital bleeds as described above. Whole blood diluted 1 part in 2 with PBS was layered over Ficoll for the separation of peripheral blood mononuclear cells (PBMC's). Spleens were prepared into single-cell suspension between glass slides. Samples were treated for RBC lysis (BD Pharm Lyse). […] The RNA integrity number (RIN) was evaluated. on an Agilent 2100 bioanalyzer with the RNA 6000 nano kit (Agilent) or RNA 6000 pica kit (Agilent). RNA amplification was performed with the SMARTER™ PCR cDNA Synthesis Kit (Clonetech). Detection of sequencing fragments was performed on the Illumina HiSeq2000 with Illumina sequencing kits. RNA-seq data sets were filtered to remove adaptors and low-quality, reads and assessed for differential expression with a fold change of 2 and p value≤0.05. Differentially expressed genes were annotated and examined through NextBio biological data mining software (Illumina).

[3] = test system: proteins of erythropoiesis related pathways (transferrin receptor 1, transferrin); assay: LC/MS protein mass spectrometry of spleen of treated mice; format: in vivo; settings: day 7, rhGAA with vs without transient low-dose methotrexate
Protocol: (§1) C57BL/6 (Jackson Laboratory) or C57BL/6NTac (Taconic Biosciences, Inc.) female mice between S and 12 weeks of age were housed and maintained in accordance with the Guide for the Care and Use of Laboratory Animals, under the American Association for Accreditation of Laboratory Animal Care. The Institutional Animal Care and Use Committee approved all animal procedures. […] Subsequent weekly doses of rhGAA (up to 16 weeks) were given 15 minutes after prophylactic intraperitoneal administration of 30 mg/kg diphenhydramine (West-ward Pharmaceutical). The vehicle control or formulation buffer (FB) for rhGAA. was administered similarly to reconstituted rhGAA. Blood was collected by retro-orbital Heeds from anesthetized mice or by terminal bleeds into EDTA anticoagulant Capiject micro collection tubes (Terumo) on wet ice. […]
Blood was collected by terminal retro-orbital bleeds as described above followed by separation of plasma and PBC by centrifugation. […] Data was analyzed by Progenesis QI for Proteomics (Nonlinear Dynamics) for peak detection. […] Protein quantitation was performed through Progenesis QI for Proteomics. Fold change and p-values were calculated from the average normalized protein abundance data for each experimental group. […] Data were analyzed for enrichment scores in GO processes and other biological categories in MetaCore (Thomson Reuters).

[4] = Spleen weight and spleen cellularity; format: in vivo, mice; settings: day 7; rhGAA concurrent with a single cycle of low-dose methotrexate vs rhGAA alone
Protocol: as §1
Anti-mouse antibodies used for flow cytometry include BioLegend antibodies PE-Ter-119 (catalog 116208), PerCP-Cy5.5-CD71 (catalog 113816), PE-Cy7-IgM (catalog 406516), Pacific Blue (PB)-CD86 (catalog 105022) and allophycocyanin-CD45 (catalog 103116). […] Live/dead discrimination was determined by staining with BioLegend Zombie Aqua Fixable Visability Kit. […] Cytometry data was analyzed on Floyd( )software version 10 (FlowJo, LLC). Absolute numbers of cell population were calculated from CountBright Absolute Counting Beads (ThermoFisher Scientific). […]

[5] = test system: total RBCs (Ter-119+) and immature, nucleated RBCs (Ter-119+CD71+); assay: Flow cytometry of erythroid cells in spleen; format: in vivo, mice
Protocol: (§2) C57BL/6 (Jackson Laboratory) or C57BL/6NTac (Taconic Biosciences, Inc.) female mice between S and 12 weeks of age were housed and maintained in accordance with the Guide for the Care and Use of Laboratory Animals, under the American Association for Accreditation of Laboratory Animal Care. The Institutional Animal Care and Use Committee approved all animal procedures. […] Subsequent weekly doses of rhGAA (up to 16 weeks) were given 15 minutes after prophylactic intraperitoneal administration of 30 mg/kg diphenhydramine (West-ward Pharmaceutical). The vehicle control or formulation buffer (FB) for rhGAA. was administered similarly to reconstituted rhGAA. Blood was collected by retro-orbital Heeds from anesthetized mice or by terminal bleeds into EDTA anticoagulant Capiject micro collection tubes (Terumo) on wet ice. Spleens were prepared into single-cell suspension between glass slides with or without RBC lysis. Bone marrow was collected from a single femur on wet ice.
(§3) Anti-mouse antibodies used for flow cytometry include BioLegend antibodies PE-Ter-119 (catalog 116208), PerCP-Cy5.5-CD71 (catalog 113816), PE-Cy7-IgM (catalog 406516), Pacific Blue (PB)-CD86 (catalog 105022) and allophycocyanin-CD45 (catalog 103116). Antibodies from BD Biosciences include FITC-CD44 (catalog 553133), allophycocyanin-CD3 (catalog 550035), allophycocyanin-CD19 or allophycocyanin-Cy7-CD19 (catalog 557655 and 550992), FITC-CD1d (catalog 553843), FITC-CD23 (catalog 553138) and allophycocyanin-Cy7-CD3, (catalog 557596). Live/dead discrimination was determined by staining with BioLegend Zombie Aqua Fixable Visability Kit. Samples were run on a BD FACS Canto II (BD Biosciences) and acquired with BD FACSDiva software. Cytometry data was analyzed on Floyd( )software version 10 (FlowJo, LLC). Absolute numbers of cell population were calculated from CountBright Absolute Counting Beads (ThermoFisher Scientific). Cell types assessed include total RBCs (Ter-119^+), immature, nucleated RBCs (Ter-119^+, CD71^+), mature RBCs (Ter-119^+, […]), proerythrohlasts (Ter-119^intermediate, CD44^high), basophilic erythroblasts (Ter-119^+, CD44^highFSC^high), polychromatic erythroblasts (Ter-119^+, CD44^intermediateFSC^intermediate), orthochromatic erythroblasts and reticulocytes (Ter-119^+, CD44^intermediateFSC^low), mature red blood cells (Ter-119^+, CD44^lowFSC^low), total activated B cells (CD19^+CD86^+), activated follicular B cells (CD19^+, IgM^low/high CD23^+, CD86^+), activated marginal zone B cells (CD19^+, IgM^high CD23^−, CD86^+), and B10 regulatory B cells (CD19^+, CD1d^highCD5^+) (Allman et. al., 2004: Chen et. al., 2009; Koulnis et. al., 2011; Joly et. al., 2014).

[6] = test system: total RBCs (Ter-119+) and immature, nucleated RBCs (Ter-119+CD71+); assay: Flow cytometry of erythroid cells in blood; format: in vivo, mice
Protocol: as §2, §3

[7] = Hematology: CBC and reticulocyte count on Sysmex XT2000iV; format: in vivo, mice; settings: blood; 7 days after rhGAA initiation; groups with transient low-dose methotrexate (rhGAA or FB)
Protocol: as §2
Samples were collected by retro-orbital bleed into EDTA anticoagulant Capiject micro collection tubes as described above and stored at 2-8° C. for no longer than 72 hours. CBC, WBC differential analysis and reticulocyte count were performed on Sysmex XT2000iV (Sysmex). Histology, immunohistochemistry (IHC)

[8] = test system: total RBCs (Ter-119+) and immature, nucleated RBCs (Ter-119+CD71+); assay: Flow cytometry of erythroid cells in bone marrow; format: in vivo, mice
Protocol: as §2, §3

anti-rhGAA IgG antibody [9] = assay: Serum anti-rhGAA antibody titers by ELISA, dosed control mice; format: in vivo; settings: high outlier not removed (data not shown)
Protocol: as §2
Quantitation of anti-rhGAA antibody titers from mouse serum was measured by ELBA as previously described (holy, Martin et. al. 2014). […] The reaction was stopped by addition of 1 N HCl and absorbance was immediately measured at 450/650 nm on a SpectraMax M2 (Molecular Devices). End-point titers were derived from the reciprocal of the sample dilution resulting in an absorbance value of 0.2.

anti-rhGAA IgG antibody [10] = settings: historical data; rhGAA with transient low-dose methotrexate ITI regimen vs rhGAA alone; cited from earlier work
[11] = day 2, CD44/FSC gating, with rhGAA vs rhGAA alone
[12] = day 2, with rhGAA vs rhGAA alone
[13] = day 7, CD44/FSC gating, with rhGAA vs rhGAA alone
[14] = day 7, with rhGAA vs rhGAA alone
[15] = day 9, with rhGAA vs rhGAA alone
[16] = day 4, with rhGAA vs rhGAA alone
[17] = day 4, CD44/FSC gating, with rhGAA vs rhGAA alone
[18] = day 5, with rhGAA vs rhGAA alone
[19] = day 7 and 9, with rhGAA vs rhGAA alone
[20] = day 9, CD44/FSC gating, with rhGAA vs rhGAA alone

rhGAA: recombinant human acid-α-glucosidase, enzyme replacement therapy used to treat Pompe disease
erythroid ankyrin signal in 10 μM spleen sections [1]: evenly distributed across the spleen
glycophorin C signal in 10 μM spleen sections [1]: evenly distributed across the spleen

CN(Cc1cnc2nc(N)nc(N)c2n1)c1ccc(C(=O)N[C@@H](CCC(=O)O)C(=O)O)cc1 [methotrexate]
transcriptional signatures of erythropoiesis ([2]; PBMC's): upregulation of transcriptional signatures of erythropoiesis
TfR1 in the transcriptional data set ([2]; day 7, rhGAA and low-dose methotrexate vs rhGAA alone): upregulation
transcriptional signatures of erythropoiesis ([2]; spleen): upregulation of transcriptional signatures of erythropoiesis
transferrin protein level [3]: upregulation
transferrin receptor 1 protein level [3]: upregulation
spleen cellularity by flow cytometry [4]: significantly greater
spleen weight [4]: significantly enlarged
day of peak enrichment of immature, nucleated RBCs [5]: 7 days
time to significant reduction in immature, nucleated RBCs and mature RBCs ([5]; after the first administration of low-dose methotrexate): ≤ 24 h
all stages of early erythroid cells (proerythroblasts, basophilic, polychromatic, orthochromatic erythroblasts and reticulocytes) [5, 11]: significantly diminished
mature RBCs [5, 11]: significantly reduced
immature, nucleated RBCs (Ter-119+CD71+) [5, 12]: nearly complete reduction
total erythroid cells (Ter-119+) [5, 12]: significant reduction
erythroid cells, difference between groups ([5]; day 6, with rhGAA vs rhGAA alone): No differences
mature RBCs [5, 13]: no differences
proerythroblasts, basophilic, polychromatic and orthochromatic erythroblasts and reticulocytes [5, 13]: significant enrichment
immature, nucleated RBCs (Ter-119+CD71+) [5, 14]: significant expansion
total erythroid cells (Ter-119+) [5, 14]: large and significant enrichment
immature, nucleated RBCs (Ter-119+CD71+) [5, 15]: smaller but significant enrichment
total erythroid cells (Ter-119+) [5, 15]: smaller but significant enrichment
erythroid response ([5]; transient low-dose methotrexate alone (with FB)): mimicked that of the group treated with transient low-dose methotrexate together with rhGAA
basophilic erythroblasts, orthochromatic erythroblasts, reticulocytes and mature red blood cells [6, 11]: small but significant reduction
immature, nucleated RBCs [6, 12]: significant depletion
total RBCs [6, 12]: significant depletion
immature, nucleated RBCs [6, 16]: nearly absent
immature, nucleated RBCs [6, 13]: no changes
mature RBCs [6, 13]: significant reduction
total RBCs [6, 14]: significantly reduced
immature, nucleated RBCs ([6]; day 7, with rhGAA vs rhGAA alone, Ter-119/CD71 gating): significantly enriched
immature, nucleated RBCs [6, 15]: significantly enriched
total RBCs [6, 15]: significantly enriched
immature, nucleated RBCs ([6]; day 14, with rhGAA vs rhGAA alone): small but significant enrichment
enrichment of immature, nucleated RBCs ([6]; day 28, with rhGAA vs rhGAA alone): absent
total RBCs ([6]; methotrexate alone vs vehicle control): no observed differences
Hemoglobin content [7]: significantly reduced
Total RBC numbers (CBC) [7]: significantly reduced
frequency and numbers of mature reticulocytes [7]: no observed differences
frequency of the immature reticulocyte fraction (IRF) [7]: significantly enriched
hematocrit [7]: significantly reduced
all stages of early erythroid cells [8, 17]: significant depletion
mature RBCs [8, 17]: no statistically significant differences
immature, nucleated RBCs [8, 16]: significantly reduced
total RBCs [8, 16]: no Differences
all erythroid cell stages, including early and mature RBCs ([8]; day 5, CD44/FSC gating, with rhGAA vs rhGAA alone): Depletion
immature, nucleated RBCs [8, 18]: significantly reduced
total RBCs [8, 18]: significantly reduced
mature RBCs [8, 13]: significantly reduced
proerythroblasts and polychromatic erythroblasts [8, 13]: small but significant enrichment
immature, nucleated RBCs [8, 19]: no differences
total RBCs [8, 19]: no differences
mature RBCs [8, 20]: no differences
proerythroblasts and polychromatic erythroblasts [8, 20]: small but significant enrichment
erythroid ankyrin signal in 10 μM spleen sections [1]: diminished
glycophorin C signal in 10 μM spleen sections [1]: diminished
rhGAA titers and AUC, difference between dosed control groups (anti-rhGAA IgG antibody [9]): no differences
rhGAA titers and AUC (anti-rhGAA IgG antibody [10]): significantly reduced
